Tests used:
CYP3A5 = CYP3A5 (Homo sapiens, UniProt P20815); assay: Stability assessed as recombinant human CYP3A5 mediated compound metabolism by measuring parent compound remaining after 30 mins relative to control; type: ADME; conditions: read-out: Stability
[1] = Intrinsic clearance in mouse liver microsomes at 0.5 uM incubated for 0.5 to 60 mins by LC-MS/MS analysis; type: ADME, Microsome; conditions: read-out: CLH
[2] = Toxicity in female Sprague-Dawley rat during 3-month repeated dose toxicology study; conditions: in vivo
Cytochrome P450 2E1 [3] = biological target: T1, Cytochrome P450 2E1 (Homo sapiens, UniProt P05181); assay: (§1) Inhibition of recombinant human CYP2E1; type: ADME
T1 sequence (P05181 whole entry): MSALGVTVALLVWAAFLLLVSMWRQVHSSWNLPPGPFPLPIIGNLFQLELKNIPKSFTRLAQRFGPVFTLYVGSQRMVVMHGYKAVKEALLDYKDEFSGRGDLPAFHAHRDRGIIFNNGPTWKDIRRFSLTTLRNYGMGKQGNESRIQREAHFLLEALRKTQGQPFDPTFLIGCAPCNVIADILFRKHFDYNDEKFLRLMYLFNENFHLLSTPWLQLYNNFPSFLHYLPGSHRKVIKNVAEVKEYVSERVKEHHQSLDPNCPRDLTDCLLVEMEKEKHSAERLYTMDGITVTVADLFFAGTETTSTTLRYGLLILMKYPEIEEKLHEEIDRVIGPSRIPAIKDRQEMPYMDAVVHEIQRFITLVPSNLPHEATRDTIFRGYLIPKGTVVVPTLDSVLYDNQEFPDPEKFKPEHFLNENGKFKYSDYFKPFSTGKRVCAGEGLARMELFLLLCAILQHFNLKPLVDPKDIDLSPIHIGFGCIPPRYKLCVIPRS

Cytochrome P450 2C19 = Cytochrome P450 2C19 (Homo sapiens, UniProt P33261); assay: Inhibition of recombinant human CYP2C19; type: ADME
Chain of Cytochrome P450 2C19 (P33261 whole entry): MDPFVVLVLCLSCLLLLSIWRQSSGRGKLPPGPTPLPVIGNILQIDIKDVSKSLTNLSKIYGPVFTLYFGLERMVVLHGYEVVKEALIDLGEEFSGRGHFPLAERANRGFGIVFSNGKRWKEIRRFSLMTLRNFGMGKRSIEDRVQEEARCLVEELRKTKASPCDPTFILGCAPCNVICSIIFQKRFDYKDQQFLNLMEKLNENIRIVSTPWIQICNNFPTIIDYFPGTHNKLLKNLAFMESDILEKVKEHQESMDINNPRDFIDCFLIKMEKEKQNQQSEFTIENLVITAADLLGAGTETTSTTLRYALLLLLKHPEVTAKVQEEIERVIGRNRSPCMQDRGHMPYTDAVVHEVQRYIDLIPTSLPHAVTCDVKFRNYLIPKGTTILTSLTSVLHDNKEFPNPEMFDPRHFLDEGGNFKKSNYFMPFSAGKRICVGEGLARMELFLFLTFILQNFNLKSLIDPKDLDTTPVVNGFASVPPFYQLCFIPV

Cytochrome P450 2A6 = biological target: T2, Cytochrome P450 2A6 (Homo sapiens, UniProt P11509); assay: Inhibition of recombinant human CYP2A6; type: ADME
T2 sequence (P11509 whole entry): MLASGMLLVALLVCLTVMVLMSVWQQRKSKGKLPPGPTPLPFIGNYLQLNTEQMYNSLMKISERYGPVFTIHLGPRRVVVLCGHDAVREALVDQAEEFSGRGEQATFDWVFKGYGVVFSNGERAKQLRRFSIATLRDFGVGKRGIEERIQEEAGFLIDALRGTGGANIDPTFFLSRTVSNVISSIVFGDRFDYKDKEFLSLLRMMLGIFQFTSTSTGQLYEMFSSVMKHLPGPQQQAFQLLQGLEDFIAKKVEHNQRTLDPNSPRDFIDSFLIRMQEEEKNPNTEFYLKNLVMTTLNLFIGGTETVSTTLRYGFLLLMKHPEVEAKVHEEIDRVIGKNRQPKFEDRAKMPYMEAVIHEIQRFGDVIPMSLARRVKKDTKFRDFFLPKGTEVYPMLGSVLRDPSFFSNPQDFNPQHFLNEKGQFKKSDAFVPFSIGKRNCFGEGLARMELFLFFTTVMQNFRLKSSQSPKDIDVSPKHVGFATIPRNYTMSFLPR

Cytochrome P450 2C9 [4] = biological target: T3, Cytochrome P450 2C9 (Homo sapiens, UniProt P11712); assay: (§2) Inhibition of recombinant human CYP2C9; type: ADME
T3 sequence (P11712 whole entry): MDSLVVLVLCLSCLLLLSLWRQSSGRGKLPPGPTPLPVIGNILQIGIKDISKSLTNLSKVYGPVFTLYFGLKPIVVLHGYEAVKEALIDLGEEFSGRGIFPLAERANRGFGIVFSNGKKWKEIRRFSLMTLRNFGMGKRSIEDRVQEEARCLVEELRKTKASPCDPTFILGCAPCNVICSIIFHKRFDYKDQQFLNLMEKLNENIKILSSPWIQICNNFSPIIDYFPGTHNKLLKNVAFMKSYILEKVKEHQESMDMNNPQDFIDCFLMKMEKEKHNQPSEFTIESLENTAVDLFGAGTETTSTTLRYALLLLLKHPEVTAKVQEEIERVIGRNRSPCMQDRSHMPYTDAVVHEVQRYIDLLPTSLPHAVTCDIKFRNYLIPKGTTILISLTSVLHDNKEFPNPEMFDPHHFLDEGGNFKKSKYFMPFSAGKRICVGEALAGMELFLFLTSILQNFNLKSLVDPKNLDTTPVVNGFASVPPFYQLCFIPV

Cytochrome P450 2B6 = biological target: T4, Cytochrome P450 2B6 (Homo sapiens, UniProt P20813); assay: Inhibition of recombinant human CYP2B6; type: ADME
T4 sequence (P20813 whole entry): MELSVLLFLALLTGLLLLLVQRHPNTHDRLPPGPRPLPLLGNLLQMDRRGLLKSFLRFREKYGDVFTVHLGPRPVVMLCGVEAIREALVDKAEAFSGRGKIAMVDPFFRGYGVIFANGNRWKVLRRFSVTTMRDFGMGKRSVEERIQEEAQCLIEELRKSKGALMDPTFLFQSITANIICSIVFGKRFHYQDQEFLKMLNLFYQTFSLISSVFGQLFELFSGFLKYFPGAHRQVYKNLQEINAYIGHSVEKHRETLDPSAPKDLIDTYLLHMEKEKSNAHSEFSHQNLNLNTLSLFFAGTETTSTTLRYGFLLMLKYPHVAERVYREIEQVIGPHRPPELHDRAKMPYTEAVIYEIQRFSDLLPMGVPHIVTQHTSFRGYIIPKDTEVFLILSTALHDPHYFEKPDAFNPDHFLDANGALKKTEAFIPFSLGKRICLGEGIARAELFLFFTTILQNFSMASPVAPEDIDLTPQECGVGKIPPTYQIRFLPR

Cytochrome P450 3A4 [5] = biological target: T5, Cytochrome P450 3A4 (Homo sapiens, UniProt P08684); assay: Inhibition of recombinant human CYP3A4 using midazolam as substrate; type: ADME
T5 sequence (P08684 whole entry): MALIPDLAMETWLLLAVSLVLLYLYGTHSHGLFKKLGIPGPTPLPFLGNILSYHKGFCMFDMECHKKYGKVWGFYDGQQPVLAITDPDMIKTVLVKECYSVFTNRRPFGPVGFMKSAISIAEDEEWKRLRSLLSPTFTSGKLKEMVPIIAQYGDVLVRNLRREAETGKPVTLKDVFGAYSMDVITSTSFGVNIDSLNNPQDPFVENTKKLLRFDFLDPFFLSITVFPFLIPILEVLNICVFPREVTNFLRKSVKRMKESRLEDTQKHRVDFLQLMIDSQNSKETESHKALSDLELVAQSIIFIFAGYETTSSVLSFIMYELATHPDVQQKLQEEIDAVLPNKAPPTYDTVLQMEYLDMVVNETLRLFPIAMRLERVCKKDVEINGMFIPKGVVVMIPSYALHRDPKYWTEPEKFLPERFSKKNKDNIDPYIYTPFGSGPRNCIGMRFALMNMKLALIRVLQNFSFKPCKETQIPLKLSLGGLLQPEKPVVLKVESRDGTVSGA

[6] = biological target: Dipeptidyl peptidase 4 (Mus musculus) (UniProt P28843); assay: Ex-vivo inhibition of DPP4 in plasma isolated from ob/ob mouse assessed as time duration during which DPP4 inhibition rate stays above 80% treated at 30 mg/kg, po measured after 2 to 72 hrs by fluorescence based assay; type: functional, organism-based
Chain of Dipeptidyl peptidase 4 (Mus musculus) (P28843 whole entry, looked up): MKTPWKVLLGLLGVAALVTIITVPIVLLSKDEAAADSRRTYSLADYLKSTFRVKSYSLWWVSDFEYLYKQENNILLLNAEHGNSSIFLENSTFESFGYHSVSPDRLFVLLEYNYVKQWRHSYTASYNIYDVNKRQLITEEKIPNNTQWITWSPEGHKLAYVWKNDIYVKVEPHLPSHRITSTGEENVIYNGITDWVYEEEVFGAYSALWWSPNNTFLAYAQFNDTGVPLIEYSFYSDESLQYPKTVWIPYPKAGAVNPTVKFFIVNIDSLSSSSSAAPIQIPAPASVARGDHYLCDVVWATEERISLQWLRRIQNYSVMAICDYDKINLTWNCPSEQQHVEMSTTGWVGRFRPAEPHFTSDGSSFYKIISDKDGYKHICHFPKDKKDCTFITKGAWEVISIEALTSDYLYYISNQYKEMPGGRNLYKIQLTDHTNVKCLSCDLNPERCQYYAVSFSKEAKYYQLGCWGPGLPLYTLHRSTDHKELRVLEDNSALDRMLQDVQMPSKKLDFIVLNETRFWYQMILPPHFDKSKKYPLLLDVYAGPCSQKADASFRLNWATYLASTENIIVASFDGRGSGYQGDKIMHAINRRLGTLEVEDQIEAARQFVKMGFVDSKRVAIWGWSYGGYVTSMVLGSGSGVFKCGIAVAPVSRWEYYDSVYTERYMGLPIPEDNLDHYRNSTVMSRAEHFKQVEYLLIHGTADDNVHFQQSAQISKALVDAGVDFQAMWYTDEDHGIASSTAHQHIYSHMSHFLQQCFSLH

CYP3A4 = CYP3A4 (Homo sapiens, UniProt P08684); assay: Stability assessed as recombinant human CYP3A4 mediated compound metabolism by measuring parent compound remaining after 30 mins relative to control; type: ADME; conditions: read-out: Stability
Chain of CYP3A4 (P08684 whole entry): as the sequence (P08684 whole entry) above

[7] = Toxicity in ob/ob mouse assessed as induction of body weight gain at 1 to 10 mg/kg, po dosed once every three days for 31 days; type: organism-based; conditions: in vivo, 744 h
[8] = Toxicity in Sprague-Dawley rat during single oral dose toxicology study; conditions: in vivo
[9] = AUC in male Sprague-Dawley rat during 3-month repeated dose toxicology study; type: ADME; conditions: in vivo
Cytochrome P450 2C9 [10] = biological target: T3, Cytochrome P450 2C9; assay: as §2; type: ADME; remark: listed apart in the source
Cytochrome P450 2E1 [11] = biological target: T1, Cytochrome P450 2E1; assay: as §1; type: ADME; remark: listed apart in the source
Cytochrome P450 2D6 = Cytochrome P450 2D6 (Homo sapiens, UniProt P10635); assay: Inhibition of recombinant human CYP2D6; type: ADME
Chain of Cytochrome P450 2D6 (P10635 whole entry): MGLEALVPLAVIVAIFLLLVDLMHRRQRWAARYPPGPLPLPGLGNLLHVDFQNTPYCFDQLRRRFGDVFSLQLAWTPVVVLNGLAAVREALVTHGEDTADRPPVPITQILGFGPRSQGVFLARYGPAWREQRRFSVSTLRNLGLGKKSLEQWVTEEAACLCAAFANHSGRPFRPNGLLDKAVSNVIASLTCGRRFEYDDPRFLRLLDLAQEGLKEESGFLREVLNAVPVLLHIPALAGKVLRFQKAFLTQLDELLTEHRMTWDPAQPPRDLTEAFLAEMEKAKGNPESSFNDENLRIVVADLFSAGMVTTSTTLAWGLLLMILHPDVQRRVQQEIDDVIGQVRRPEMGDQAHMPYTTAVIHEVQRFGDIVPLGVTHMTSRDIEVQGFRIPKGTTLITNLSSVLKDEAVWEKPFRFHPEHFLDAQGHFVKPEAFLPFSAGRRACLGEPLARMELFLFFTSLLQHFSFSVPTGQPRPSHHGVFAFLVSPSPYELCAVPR

CYP2D6 = CYP2D6 (Homo sapiens, UniProt P10635); assay: Stability assessed as recombinant human CYP2D6 mediated compound metabolism by measuring parent compound remaining after 30 mins relative to control; type: ADME; conditions: read-out: Stability
Chain of CYP2D6 (P10635 whole entry): as above

Cytochrome P450 3A5 = Cytochrome P450 3A5 (Homo sapiens, UniProt P20815); assay: Inhibition of recombinant human CYP3A5 using testosterone as substrate; type: ADME
Chain of Cytochrome P450 3A5 (P20815 whole entry): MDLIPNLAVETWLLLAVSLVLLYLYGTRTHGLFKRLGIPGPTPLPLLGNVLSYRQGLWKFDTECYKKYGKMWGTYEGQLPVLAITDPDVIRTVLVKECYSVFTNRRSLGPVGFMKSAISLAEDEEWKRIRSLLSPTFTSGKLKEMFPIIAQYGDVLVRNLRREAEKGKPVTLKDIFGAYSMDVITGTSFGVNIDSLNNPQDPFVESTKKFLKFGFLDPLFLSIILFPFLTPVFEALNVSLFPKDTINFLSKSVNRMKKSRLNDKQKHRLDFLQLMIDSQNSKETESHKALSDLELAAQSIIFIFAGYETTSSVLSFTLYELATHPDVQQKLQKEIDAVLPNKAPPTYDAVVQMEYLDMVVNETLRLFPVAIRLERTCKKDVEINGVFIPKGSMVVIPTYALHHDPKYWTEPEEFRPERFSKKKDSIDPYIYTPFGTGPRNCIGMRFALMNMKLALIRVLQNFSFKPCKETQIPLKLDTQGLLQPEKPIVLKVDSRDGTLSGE

Rhesus monkey = assay: Ex-vivo inhibition of DPP4 in plasma isolated from rhesus monkey treated at 10 mg/kg, ig after 3 weeks by fluorescence based assay relative to control; type: functional; conditions: Macaca mulatta, po, 504 h
Mus musculus = assay: Antidiabetic activity in ob/ob mouse assessed as reduction in decrease in HbA1c level at 10 mg/kg, po dosed once every three days for 31 day relative to control; type: functional; parameters: scale not given: the % may be the effect or the level left
Cytochrome P450 3A4 [12] = biological target: T5, Cytochrome P450 3A4; assay: Inhibition of recombinant human CYP3A4 using testosterone as substrate; type: ADME

Chain of CYP3A5 (P20815 whole entry): as above

Compound CS(=O)(=O)n1cc2c(n1)CN([C@@H]1C[C@H](N)[C@@H](c3cc(F)ccc3F)O[C@@H]1C(F)(F)F)C2 [COFROGLIPTIN] has a remaining at 0.5 h (CYP3A5) greater than 95%, a microsomal CLint at 0.5 µM [1] of 0.8 µL/min/mg and an NOAEL at 3 month [2] of 100 mg/kg. It also gave an IC50 (Cytochrome P450 2E1 [3]) greater than 100 µM, an IC50 (Cytochrome P450 2C19) greater than 100 µM and an IC50 (Cytochrome P450 2A6) greater than 100 µM. It also gave an IC50 (Cytochrome P450 2C9 [4]) greater than 100 µM, an IC50 (Cytochrome P450 2B6) greater than 100 µM and an IC50 (Cytochrome P450 3A4 [5]) greater than 100 µM. For the same compound, the TIME [6] was 72 h, the remaining at 0.5 h (CYP3A4) was greater than 95% and the Activity [7] was “Toxic”. For the same compound, the MTD [8] was 1000 mg/kg, the AUC [9] was 3600 µg·h/mL and the IC50 (Cytochrome P450 2C9 [10]) was greater than 100 µM. It also gave an IC50 (Cytochrome P450 2E1 [11]) greater than 100 µM, an IC50 (Cytochrome P450 2D6) greater than 100 µM and a remaining at 0.5 h (CYP2D6) greater than 95%. The IC50 (Cytochrome P450 3A5) was greater than 100 µM, the inhibition in vivo at 10 mg/kg (Rhesus monkey) was 43.4% and the Activity (Mus musculus) was 16.2%. The IC50 (Cytochrome P450 3A4 [12]) was greater than 100 µM.

Source: ChEMBL document CHEMBL4613324, “Design, Synthesis, and Evaluation of a Series of Novel Super Long-Acting DPP-4 Inhibitors for the Treatment of Type 2 Diabetes” (J Med Chem, 2020)
